Experiments:
Plk3 PBD = molecular target: T1, Plk3 PBD (Homo sapiens, UniProt Q9H4B4); experiment: Fluorescence polarization assay, Plk3 PBD / FITC-labeled phosphopeptide; format: binding
T1 construct: (326-603 aa), Plk2 (355-685 aa), and Plk3 (335-646 aa); GST (N); made in house; host or cells: E. coli Rosetta BL21(DE3)
T1 sequence (Q9H4B4 335-646): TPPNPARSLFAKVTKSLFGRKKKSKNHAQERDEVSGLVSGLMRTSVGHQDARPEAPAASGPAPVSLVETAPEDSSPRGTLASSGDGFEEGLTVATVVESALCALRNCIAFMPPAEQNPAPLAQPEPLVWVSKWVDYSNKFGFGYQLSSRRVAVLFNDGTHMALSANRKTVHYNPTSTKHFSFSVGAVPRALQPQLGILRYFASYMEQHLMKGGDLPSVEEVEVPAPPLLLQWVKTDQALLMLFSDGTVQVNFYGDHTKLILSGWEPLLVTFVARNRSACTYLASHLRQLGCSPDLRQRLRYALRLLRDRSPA
Protocol: FP assay was performed as follow. […] We calculated the percentage of inhibition for each sample as follows: Inhibition(%)=Negative−Sample/Negative−Positive×100%
We plotted the inhibition values and determined IC50 using GraphPad Prism5.0. Together with the FITC-labeled peptides used for Plk1 PBD as mentioned above, the following peptides were used for specificity assays, FITC-GPMQTSpTPKNG-OH (Plk2 PBD), FITC-GPLATSpTPKNG-OH (Plk3 PBD).

Plk2 PBD = molecular target: T2, Plk2 PBD (Homo sapiens, UniProt Q9NYY3); experiment: Fluorescence polarization assay, Plk2 PBD / FITC-labeled phosphopeptide; format: binding; conditions: FP assay, 1 hr preincubation at RT, read-out: Apparent IC50
T2 construct: (326-603 aa), Plk2 (355-685 aa), and Plk3 (335-646 aa); GST (N); made in house; host or cells: E. coli Rosetta BL21(DE3)
T2 sequence (Q9NYY3 355-685): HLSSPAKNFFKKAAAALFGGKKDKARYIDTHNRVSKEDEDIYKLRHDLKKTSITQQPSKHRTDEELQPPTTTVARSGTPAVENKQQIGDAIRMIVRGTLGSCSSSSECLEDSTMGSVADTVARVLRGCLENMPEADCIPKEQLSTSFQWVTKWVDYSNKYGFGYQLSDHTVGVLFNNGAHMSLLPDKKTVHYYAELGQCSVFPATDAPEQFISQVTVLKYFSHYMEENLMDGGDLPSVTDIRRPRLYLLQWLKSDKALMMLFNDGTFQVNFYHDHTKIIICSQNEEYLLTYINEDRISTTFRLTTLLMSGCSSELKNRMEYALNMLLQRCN
Protocol: FP assay was performed as follow. Briefly, 30 μL Plk1 PBD proteins (400 nM) were incubated with 0.3 μL tested compounds (1 mg/mL) with shaking for 1 hr at room temperature (RT) prior to addition of 30 μL FITC-Poloboxtide (FITC-GPMQSpTPLNG-OH; λex/λem: 485/535 nm; 60 nM) in FP buffer (50 mM Tris-HCl, 10 mM NaCl, 1 mM EDTA pH8.0). Three wells containing 30 μL FITC-Poloboxtide (60 nM) and 30 μL Plk1 PBD (400 nM) were used as negative control (0% inhibition); three wells containing 60 μL FITC-Poloboxtide (30 nM) only were used as positive control (100% inhibition). Fluorescence polarization was analyzed after incubation of FITC-Poloboxtide for 15 min in a 384-well black opaque microplate (Cat# 6007270, PerkinElmer) using Envision Multilabel Reader (PerkinElmer) at 25°C. We calculated the percentage of inhibition for each sample as follows: Inhibition(%)=Negative−Sample/Negative−Positive×100%
We plotted the inhibition values and determined IC50 using GraphPad Prism5.0. Together with the FITC-labeled peptides used for Plk1 PBD as mentioned above, the following peptides were used for specificity assays, FITC-GPMQTSpTPKNG-OH (Plk2 PBD), FITC-GPLATSpTPKNG-OH (Plk3 PBD). As described above for the FP assay, proteins were used at the following final concentrations: Plk1 PBD, 200 nM; Plk2 PBD, 450 nM; Plk3 PBD, 600 nM. All FITC-labeled peptides were chemically synthesized (China Peptides Co., Ltd., Shanghai) and further verified by mass spectrometry, and the purity is more than 95.0%.

[1] = system: Plk1, Cyclin B1 and pHH-3 in HeLa cells; experiment: Western blot of mitotic markers; format: cell-based, human; conditions: synchronized HeLa, 50 ng/mL, 16 hrs, control for mitotic arrest
Protocol: HeLa cells were collected after trypsinization and lysed with RIPA buffer. Equal amount of proteins (30 μg/lane) were loaded, separated by 15% SDS-PAGE. After blocking with blocking buffer for 2 hrs at RT, the membrane was incubated with the following primary antibodies diluted in blocking buffer overnight at 4°C: anti-hPlk1 mouse monoclonal antibody (Cat# P5998; Sigma; 1:3000), anti-CyclinB1 rabbit polyclonal antibody (Cat# SAB4503501; Sigma; 1:2000), anti-pHH3 rabbit monoclonal antibody (Cat# 04-817; Millipore; 1:2000), anti-GAPDH rabbit polyclonal antibody (Cat# P30008; Abmart; 1:2000). The membrane was washed 3 times and then incubated with Horseradish Peroxidase-conjugated secondary antibodies for 1 hr at RT and visualized with ECL system (Millipore). The level of GAPDH was used as the loading control.

| Structure (SMILES) | IC50 (Plk3 PBD) [µM] | IC50 (Plk2 PBD) [µM] | mitotic markers (Plk1, Cyclin B1, pHH-3) protein levels [1] |
| --- | --- | --- | --- |
| CC1=CC(=O)C(C(C)C)=CC1=O [TQ, Thymoquinone, reference compound] | 18.9 ± 1.32 | 3.65 ± 0.96 |  |
| CC1=CC(=O)C(C(C)C)=C/C1=N/OC(=O)c1ccccc1C [Poloxin, reference compound] |  | 15.6 ± 2.26 |  |
| COC(=O)Nc1nc2ccc(C(=O)c3cccs3)cc2[nH]1 [Nocodazole, reference compound] |  |  | increase of protein levels |

Source: paper PMC5352051, “Identification of a novel Polo-like kinase 1 inhibitor that specifically blocks the functions of Polo-Box domain” (Oncotarget, 2016)
